Patent US11091484B2, “Tricyclic heterocycles as BET protein inhibitors” (Incyte Corporation, priority 2013, dated 2021)
Structures can show the parent of a compound that is named as a salt. Where two headings read alike, the source gives them in different places.

Tests used:
[1] = system: KMS.12.BM cell line (human myeloma); experiment: KMS.12.BM cell viability assay; type: cell-based; settings: KMS.12.BM cells, 3 days, Cell Titer-GLO ATP quantitation, read-out: KMS cellular IC50
Procedure: KMS. 12.BM cell line (human myeloma) was purchased from JCRB (Osaka, Japan) and maintained in RPMI with 10% FBS culture medium. To measure the cytotoxic activity of the compounds through ATP quantitation, the KMS. 12.BM cells are plated in the RPMI culture medium at 5000 cells/well/per 100 μL into a 96-well polystyrene clear black tissue culture plate (Greiner-bio-one through VWR, NJ), in the presence or absence of a concentration range of test compounds. After 3 days, […] Cell Titer-GLO Luminescent (Promega, Madison, Wis.) cell culture agent is added to each well for 10 minutes at room temperature to stabilize the luminescent signal. This determines the number of viable cells in culture based on quantitation of the ATP present, which signals the presence of metabolically active cells. Luminescence is measured with the Top Count 384 (Packard Bioscience through Perkin Elmer, Boston, Mass.). […] IC50 data for the Examples is presented in Table 4 as determined by Assay B1.

BRD4-BD1 = BRD4-BD1 (Homo sapiens (Human), UniProt O60885); experiment: BRD4 AlphaScreen assay (BRD4-BD1); type: binding; settings: H4Ac4 peptide, 3.8 nM BRD4-BD1, read-out: BRD4 BD-1 enzyme IC50
Procedure: (§1) BRD4-BD1 and BRD4-BD2 assays were conducted in white 384-well polystyrene plate in a final volume of 20 μL for BD1 and 40 μL for BD2. Inhibitors were first serially diluted in DMSO and added to the plate wells before the addition of other reaction components. The final concentration of DMSO in the assay was 1.25% (BD1) and 0.83% (BD2). The assays were carried out at room temperature for 75 min. in the assay buffer (50 mM HEPES, pH 7.4, 100 mM NaCl, 0.05% CHAPS, 0.01% BSA), containing 50 nM Biotin-labeled tetra-acetylated histone H4 peptide (H4Ac4), 3.8 nM (BRD4-BD1, BPS Bioscience #31040) or 20 nM (BRD4-BD2, BPS Bioscience #31041). The reaction followed by the addition of 20 μL of assay buffer supplemented with Streptavidin donor beads (PerkinElmer 6760002) and GSH Acceptor beads (PerkinElmer-AL109C) at 4 μg/mL under reduced light. After plate sealing, the plate was incubated in the dark at room temperature for 75 min. before reading on a PHERAstar FS plate reader (BMG Labtech). IC50 determination was performed by fitting the curve of percent control activity versus the log of the inhibitor concentration using the GraphPad Prism 5.0 software.

BRD4-BD2 = BRD4-BD2 (Homo sapiens (Human), UniProt O60885); experiment: BRD4 AlphaScreen assay (BRD4-BD2); type: binding; settings: H4Ac4 peptide, 20 nM BRD4-BD2, read-out: BRD4 BD-2 enzyme IC50
Procedure: as §1

| IC50 ([1]; Homo sapiens, 72 h) [nM] | IC50 (BRD4-BD1) [nM] | IC50 (BRD4-BD2) [nM] | Compound | IC50 [1] [nM] |
| --- | --- | --- | --- | --- |
| ≤ 1000 |  |  | Cc1nnc2ccc3c(cc(-c4ccn(CCC(=O)N(C)C)n4)n3Cc3cccc(Cl)c3)n12 [Example 103, 3-{3-[6-(3-chlorobenzyl)-1-methyl-6H-pyrrolo[2,3-e][1,2,4]triazolo[4,3-a]pyridin-7-yl]-1H-pyrazol-1-yl}-N,N-dimethylpropanamide] |  |
| ≤ 1000 | ≤ 100 | ≤ 100 | Cc1cc2c(cc(N[C@H]3CCN(C)[C@@H](C)C3)c3nnc(C)n32)n1Cc1ccccc1 (racemic) [Example 224, 6-Benzyl-N-[(2S,4S)-1,2-dimethylpiperidin-4-yl]-1,7-dimethyl-6H-pyrrolo[2,3-e][1,2,4]triazolo[4,3-a]pyridin-4-amine and 6-Benzyl-N-[(2R,4R)-1,2-dimethylpiperidin-4-yl]-1,7-dimethyl-6H-pyrrolo[2,3-e][1,2,4]triazolo[4,3-a]pyridin-4-amine (Racemic Mixture Prepared)] |  |
|  |  |  | Cc1nnc2ccc3c(cc(-c4cc[nH]n4)n3Cc3cccc(CN4CCC4)c3)n12 [Example 182, 6-[3-(Azetidin-1-ylmethyl)benzyl]-1-methyl-7-(1H-pyrazol-3-yl)-6H-pyrrolo[2,3-e][1,2,4]triazolo[4,3-a]pyridine tris(trifluoroaceate) Salt] | ≤ 1000 |
